Values after ≈ are worked out from the molar mass of the structure shown.
Key:
[1] = target: T1, Tyrosine-protein kinase BTK (Homo sapiens, UniProt Q06187); experiment: Inhibition of Btk (unknown origin) assessed as inhibition of phosphorylation of FAM-labelled peptide substrate
[2] = target: T1, Tyrosine-protein kinase BTK; experiment: Inhibition of human Btk in human Raji cells assessed as PhosY223 measured after 30 mins by cellular HTRF assay; type: cell-based
[3] = Thermodynamic solubility of the compound at pH 1.2 in JP1 fluid; type: physicochemical; conditions: read-out: Therm_solubility
[4] = Thermodynamic solubility of the compound at pH 6.8 in JP2 fluid; type: physicochemical; conditions: read-out: Therm_solubility
[5] = Thermodynamic solubility of the compound at pH 6.8 in GCDC; type: physicochemical; conditions: read-out: Therm_solubility
[6] = test system: MDR1; experiment: Apparent permeability from apical to basolateral side in LLC-PK1-MDR1 cells; type: ADME, cell-based, Sus scrofa; conditions: pig
[7] = test system: MDR1; experiment: Efflux ratio of apparent permeability in LLC-PK1-MDR1 cells; conditions: pig
[8] = Metabolic stability in mouse liver hepatocytes assessed as extraction ratio
[9] = Metabolic stability in Sprague-Dawley rat liver hepatocytes assessed as extraction ratio
[10] = Metabolic stability in Beagle dog liver hepatocytes assessed as extraction ratio
[11] = Metabolic stability in monkey liver hepatocytes assessed as extraction ratio; conditions: rhesus monkey
[12] = Metabolic stability in human liver hepatocytes assessed as extraction ratio; conditions: mouse
[13] = Plasma protein binding in Sprague-Dawley rat measured by rapid equilibrium dialysis method; type: ADME, cell-free; conditions: read-out: PPB (converted)
[14] = Plasma protein binding in human measured by rapid equilibrium dialysis method; type: ADME, cell-free; conditions: read-out: PPB (converted)
[15] = Clearance in Beagle dog at 1 mg/kg, iv; type: ADME, organism-based, Canis lupus familiaris; conditions: in vivo
[16] = In vivo stability in Sprague-Dawley rat liver assessed as extraction ratio at 70 ml/kg
[17] = In vivo stability in Beagle dog liver assessed as extraction ratio at 35 ml/kg
[18] = Half life in Sprague-Dawley rat; type: ADME; conditions: in vivo
[19] = Half life in Beagle dog; type: ADME, Canis lupus familiaris; conditions: in vivo
[20] = In vivo inhibition of pBTK in collagen-induced arthritis rat model at 3-30 mg/kg after 12 hrs; type: functional
[21] = test system: Rattus norvegicus; experiment: Antiarthritic activity against collagen-induced arthritis po dosed Lewis rat model assessed as inhibition of paw swelling measured after 22 days; type: organism-based; conditions: 528 h, time 22 day
[22] = AUC in collagen-induced arthritis rat model at 3 mg/kg, po […] after 22 days; type: ADME, organism-based; design: dose 3 mg/kg, time 22 day; conditions: in vivo, 528 h
[23] = target: Tyrosine-protein kinase Lck (Homo sapiens, UniProt P06239); experiment: Inhibition of Lck (unknown origin)
[24] = target: hERG (KCNH2) (Homo sapiens, UniProt Q12809); experiment: Inhibition of hERG at 13 uM
[25] = test system: Salmonella typhimurium; experiment: Genotoxicity in Salmonella typhimurium TA98 by Ames test; type: toxicity, organism-based; conditions: salmonella enterica subsp. enterica serovar typhimurium
[26] = test system: Salmonella typhimurium; experiment: Genotoxicity in Salmonella typhimurium […] by Ames test; type: toxicity, organism-based; conditions: salmonella enterica subsp. enterica serovar typhimurium
[27] = test system: Salmonella typhimurium; experiment: Genotoxicity in Salmonella typhimurium TA1535 by Ames test; type: toxicity, organism-based; conditions: salmonella enterica subsp. enterica serovar typhimurium
[28] = test system: Salmonella typhimurium; experiment: Genotoxicity in Salmonella typhimurium TA1537 by Ames test; type: toxicity, organism-based; conditions: salmonella enterica subsp. enterica serovar typhimurium
[29] = test system: Salmonella typhimurium; experiment: Genotoxicity in Salmonella typhimurium WP2 uvrA in presence of S9 fraction by Ames test; type: toxicity, organism-based; conditions: salmonella enterica subsp. enterica serovar typhimurium
[30] = test system: Salmonella typhimurium; experiment: Genotoxicity in Salmonella typhimurium WP2 uvrA in absence of S9 fraction by Ames test; type: toxicity, organism-based; conditions: salmonella enterica subsp. enterica serovar typhimurium
[31] = Toxicity in human peripheral blood lymphocytes in presence of S9 fraction by micronucleus test; type: subcellular, Lymphocyte
[32] = Toxicity in human peripheral blood lymphocytes in absence of S9 fraction by micronucleus test; type: cell-based; conditions: lymphocyte
[33] = Oral bioavailability in Sprague-Dawley rat; type: ADME, organism-based; conditions: in vivo
[34] = Oral bioavailability in Beagle dog; type: ADME, organism-based, Canis lupus familiaris; conditions: in vivo
[35] = Stability in PBS buffer measured after 2 hrs; type: physicochemical
[36] = GSH reactivity in pH 7.4 PBS buffer assessed as intrinsic reactivity by measuring percent remaining measured after 2 hrs; type: physicochemical; conditions: read-out: Stability
[37] = test system: Rattus norvegicus; experiment: Antiarthritic activity against collagen-induced arthritis Lewis rat model assessed as inhibition of paw swelling treated po once daily for 21 days; type: functional, organism-based; conditions: dose 0.3-3 mg/kg, time 21.0 day
[38] = test system: PDE3; experiment: Inhibition of PDE3 (unknown origin) assessed as remaining activity; conditions: human
[39] = target: PDE5 (Homo sapiens, UniProt O76074); experiment: Inhibition of PDE5 (unknown origin) assessed as remaining activity
[40] = target: PDE10A2 (Homo sapiens, UniProt Q9Y233); experiment: Inhibition of PDE10A2 (unknown origin) assessed as remaining activity
[41] = test system: Rattus norvegicus; experiment: Antiarthritic activity against collagen-induced arthritis Lewis rat model assessed as change in paw volume at 0.1 mg/kg, po once daily for 22 days; type: functional; conditions: time 22 day
[42] = test system: Rattus norvegicus; experiment: Antiarthritic activity against collagen-induced arthritis Lewis rat model assessed as change in paw volume at 0.3 mg/kg, po once daily for 22 days; type: functional; conditions: time 22 day
[43] = test system: Rattus norvegicus; experiment: Antiarthritic activity against collagen-induced arthritis Lewis rat model assessed as change in paw volume at 1 mg/kg, po once daily for 22 days; type: functional; conditions: time 22 day
[44] = test system: Rattus norvegicus; experiment: Antiarthritic activity against collagen-induced arthritis Lewis rat model assessed as change in paw volume at 3 mg/kg, po once daily for 22 days; type: functional; conditions: time 22 day
[45] = Toxicity in rat assessed as adverse effect; conditions: in vivo
[46] = Toxicity in dog assessed as adverse effect; design: species or system Canis lupus familiaris; conditions: in vivo
[47] = target: Proto-oncogene tyrosine-protein kinase Src (Homo sapiens, UniProt P12931); experiment: Inhibition of Src (unknown origin)
Proto-oncogene tyrosine-protein kinase Src, sequence (P12931 2-536 limits assumed): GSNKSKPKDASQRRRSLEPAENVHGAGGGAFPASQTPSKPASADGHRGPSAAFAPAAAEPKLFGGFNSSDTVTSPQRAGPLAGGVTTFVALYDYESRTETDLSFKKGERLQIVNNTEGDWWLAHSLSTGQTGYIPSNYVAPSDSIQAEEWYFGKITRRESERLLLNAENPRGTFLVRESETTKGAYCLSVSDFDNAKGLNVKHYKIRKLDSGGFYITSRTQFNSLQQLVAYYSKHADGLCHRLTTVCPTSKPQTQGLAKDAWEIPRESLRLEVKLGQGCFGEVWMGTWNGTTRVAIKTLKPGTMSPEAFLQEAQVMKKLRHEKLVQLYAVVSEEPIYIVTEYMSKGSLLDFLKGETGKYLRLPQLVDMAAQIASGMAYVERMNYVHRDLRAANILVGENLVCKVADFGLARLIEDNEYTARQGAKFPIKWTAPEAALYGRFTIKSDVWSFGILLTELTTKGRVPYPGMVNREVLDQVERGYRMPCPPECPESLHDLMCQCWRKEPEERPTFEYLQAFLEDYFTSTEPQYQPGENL

T1 sequence (Q06187 whole entry): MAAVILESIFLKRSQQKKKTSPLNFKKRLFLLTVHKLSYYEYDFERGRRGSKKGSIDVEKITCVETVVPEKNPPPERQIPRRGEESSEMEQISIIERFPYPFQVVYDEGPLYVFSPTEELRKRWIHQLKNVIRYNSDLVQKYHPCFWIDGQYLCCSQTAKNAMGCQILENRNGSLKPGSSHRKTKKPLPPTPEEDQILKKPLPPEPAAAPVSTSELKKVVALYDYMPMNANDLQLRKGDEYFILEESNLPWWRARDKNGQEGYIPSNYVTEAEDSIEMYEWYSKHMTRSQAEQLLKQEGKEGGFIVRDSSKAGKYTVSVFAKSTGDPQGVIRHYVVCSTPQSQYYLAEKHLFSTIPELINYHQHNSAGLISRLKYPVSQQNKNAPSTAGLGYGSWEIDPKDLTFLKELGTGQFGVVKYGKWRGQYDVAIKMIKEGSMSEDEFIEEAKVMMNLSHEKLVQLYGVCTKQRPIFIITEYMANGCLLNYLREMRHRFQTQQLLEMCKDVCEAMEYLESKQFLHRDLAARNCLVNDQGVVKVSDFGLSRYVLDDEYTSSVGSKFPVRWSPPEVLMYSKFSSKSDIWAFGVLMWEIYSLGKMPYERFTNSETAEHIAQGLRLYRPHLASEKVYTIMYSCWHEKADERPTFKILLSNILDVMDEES
hERG (KCNH2), sequence (Q12809 whole entry): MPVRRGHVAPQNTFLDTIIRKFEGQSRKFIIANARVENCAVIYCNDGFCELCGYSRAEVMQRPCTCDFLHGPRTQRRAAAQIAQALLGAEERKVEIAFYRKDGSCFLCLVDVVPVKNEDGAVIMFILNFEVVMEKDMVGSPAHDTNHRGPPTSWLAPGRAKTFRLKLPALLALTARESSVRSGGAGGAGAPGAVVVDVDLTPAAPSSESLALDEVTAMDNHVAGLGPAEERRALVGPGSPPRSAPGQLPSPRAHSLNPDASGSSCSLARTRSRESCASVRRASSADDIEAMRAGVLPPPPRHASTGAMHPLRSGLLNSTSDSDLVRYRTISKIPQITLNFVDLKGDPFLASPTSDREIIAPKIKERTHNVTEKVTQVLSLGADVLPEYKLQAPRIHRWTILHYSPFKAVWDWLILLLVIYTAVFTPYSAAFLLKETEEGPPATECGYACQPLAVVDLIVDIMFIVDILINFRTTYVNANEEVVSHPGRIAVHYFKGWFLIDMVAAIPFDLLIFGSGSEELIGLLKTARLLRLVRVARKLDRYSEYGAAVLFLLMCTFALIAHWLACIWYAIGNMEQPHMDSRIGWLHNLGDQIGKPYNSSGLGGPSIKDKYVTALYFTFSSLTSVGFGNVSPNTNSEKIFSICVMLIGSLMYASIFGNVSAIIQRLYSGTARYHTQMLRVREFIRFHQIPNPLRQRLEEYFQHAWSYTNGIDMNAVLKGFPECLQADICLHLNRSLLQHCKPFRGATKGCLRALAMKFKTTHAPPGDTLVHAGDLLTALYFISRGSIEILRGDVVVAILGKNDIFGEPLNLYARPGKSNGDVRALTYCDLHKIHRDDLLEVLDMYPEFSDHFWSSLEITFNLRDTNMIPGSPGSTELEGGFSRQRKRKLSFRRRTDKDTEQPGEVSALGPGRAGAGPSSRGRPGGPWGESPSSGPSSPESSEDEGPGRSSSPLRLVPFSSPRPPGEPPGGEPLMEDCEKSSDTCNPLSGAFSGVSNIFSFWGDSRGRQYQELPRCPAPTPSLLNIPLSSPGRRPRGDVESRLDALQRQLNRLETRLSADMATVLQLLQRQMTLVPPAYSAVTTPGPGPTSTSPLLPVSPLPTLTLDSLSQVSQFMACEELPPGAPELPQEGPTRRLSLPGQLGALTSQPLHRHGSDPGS
PDE10A2, sequence (Q9Y233 whole entry): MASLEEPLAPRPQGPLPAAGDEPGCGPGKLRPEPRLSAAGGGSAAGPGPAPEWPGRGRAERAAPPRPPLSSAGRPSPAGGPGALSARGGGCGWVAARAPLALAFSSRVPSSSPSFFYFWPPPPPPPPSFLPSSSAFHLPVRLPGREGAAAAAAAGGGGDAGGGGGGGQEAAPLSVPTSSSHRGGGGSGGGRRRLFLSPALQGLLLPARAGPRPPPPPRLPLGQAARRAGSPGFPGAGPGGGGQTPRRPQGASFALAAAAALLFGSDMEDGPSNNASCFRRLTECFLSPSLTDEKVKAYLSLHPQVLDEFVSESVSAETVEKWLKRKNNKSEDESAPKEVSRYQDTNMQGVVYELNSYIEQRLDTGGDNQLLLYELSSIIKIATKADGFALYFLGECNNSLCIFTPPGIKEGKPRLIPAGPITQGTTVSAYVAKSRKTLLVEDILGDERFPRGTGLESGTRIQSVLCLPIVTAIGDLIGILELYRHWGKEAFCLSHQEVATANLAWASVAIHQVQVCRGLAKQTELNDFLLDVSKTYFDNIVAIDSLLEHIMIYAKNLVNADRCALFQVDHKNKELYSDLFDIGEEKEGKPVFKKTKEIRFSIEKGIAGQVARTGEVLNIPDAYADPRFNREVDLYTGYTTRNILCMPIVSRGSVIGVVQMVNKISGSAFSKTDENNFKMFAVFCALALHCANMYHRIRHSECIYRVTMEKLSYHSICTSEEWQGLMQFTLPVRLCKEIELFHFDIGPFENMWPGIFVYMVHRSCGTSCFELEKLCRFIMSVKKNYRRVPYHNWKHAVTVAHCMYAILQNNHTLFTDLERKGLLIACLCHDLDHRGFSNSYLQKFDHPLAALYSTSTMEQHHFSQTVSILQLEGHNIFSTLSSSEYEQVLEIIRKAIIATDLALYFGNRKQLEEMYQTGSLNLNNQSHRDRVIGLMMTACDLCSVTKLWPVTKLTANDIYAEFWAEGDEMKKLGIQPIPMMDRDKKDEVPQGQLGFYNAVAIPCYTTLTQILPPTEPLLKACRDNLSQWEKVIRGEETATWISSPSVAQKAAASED
Tyrosine-protein kinase Lck, sequence (P06239 whole entry): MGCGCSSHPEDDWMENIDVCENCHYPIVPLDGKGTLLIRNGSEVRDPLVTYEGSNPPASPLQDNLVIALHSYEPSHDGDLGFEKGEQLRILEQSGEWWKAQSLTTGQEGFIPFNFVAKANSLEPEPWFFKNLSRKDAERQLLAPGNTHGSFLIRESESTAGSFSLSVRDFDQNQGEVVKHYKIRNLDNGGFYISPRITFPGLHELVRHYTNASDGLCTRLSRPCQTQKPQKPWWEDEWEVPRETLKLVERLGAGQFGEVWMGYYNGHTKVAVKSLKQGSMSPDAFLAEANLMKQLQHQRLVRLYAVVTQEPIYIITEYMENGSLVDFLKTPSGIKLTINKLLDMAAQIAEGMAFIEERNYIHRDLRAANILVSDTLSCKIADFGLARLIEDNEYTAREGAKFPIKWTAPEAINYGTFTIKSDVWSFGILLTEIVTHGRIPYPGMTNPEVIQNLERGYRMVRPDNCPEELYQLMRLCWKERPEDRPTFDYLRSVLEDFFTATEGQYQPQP

In the case of CCCOc1nc(-c2n[nH]c(=O)[nH]2)cc2ccccc12, the IC50 [1] is reported as 25.1 nM and the EC50 [2] is reported as 398 nM.

Compound C=CC(=O)N1CC[C@@H](Oc2nc(-c3n[nH]c(=O)[nH]3)cc3ccccc23)C1 has an IC50 [1] of 31.6 nM and an EC50 [2] of 501 nM.

NC(=O)c1nnc2ccccc2c1N gave an IC50 [1] of 3160 nM.

In the case of CC(C)COc1cccc(-c2n[nH]c(=O)[nH]2)n1, the IC50 [1] is reported as 1580 nM.

For COc1ncccc1-c1n[nH]c(=O)[nH]1, the IC50 [1] was 100000 nM.

Compound O=c1[nH]nc(-c2cc3ccccc3cn2)[nH]1 has an IC50 [1] of 5010 nM.

CC(C)Oc1nc(-c2n[nH]c(=O)[nH]2)cc2ccccc12 gave an IC50 [1] of 10 nM and an EC50 [2] of 100 nM.

In the case of CCNc1nc(-c2n[nH]c(=O)[nH]2)cc2ccccc12, the IC50 [1] is reported as 100 nM and the EC50 [2] is reported as 794 nM.

Work on Cc1cc(OC(C)C)nc(-c2n[nH]c(=O)[nH]2)c1 yielded an IC50 [1] of 251 nM.

Work on COc1cccc(-c2n[nH]c(=O)[nH]2)n1 yielded an IC50 [1] of 31600 nM.

Work on CC(=O)N1CC[C@H](Oc2nc(-c3n[nH]c(=O)[nH]3)cc3ccccc23)C1 yielded an IC50 [1] of 31.6 nM.

With CCOc1ncccc1-c1n[nH]c(=O)[nH]1 the IC50 [1] was > 100000 nM.

In the case of C=CC(=O)N1CC[C@H](Oc2nc(-c3n[nH]c(=O)[nH]3)cc3ccccc23)C1 [TAK-020], the IC50 [1] is reported as < 2 nM, the EC50 [2] is reported as 1.26 nM and the solubility thermodynamic [3] is reported as < 0.1 µg/mL. The solubility thermodynamic [4] was < 1.1 µg/mL, the solubility thermodynamic [5] was 6.8 µg/mL (≈ 19.4 µM) and the Papp A→B [6] was 1.89 ×10⁻⁶ cm/s. For the same compound, the efflux ratio [7] was 10.8, the hepatic extraction ratio [8] was 0.62 and the hepatic extraction ratio [9] was 0.31. For the same compound, the hepatic extraction ratio [10] was 0.48, the hepatic extraction ratio [11] was 0.37 and the hepatic extraction ratio [12] was 0.21. For the same compound, the fraction unbound [13] was 0.098, the fraction unbound [14] was 0.113 and the clearance [15] was 28.5 mL/min/kg. For the same compound, the hepatic extraction ratio [16] was > 0.9, the hepatic extraction ratio [17] was 0.81 and the half-life [18] was 42 min. The half-life [19] was 180 min, the inhibition in vivo at 30 mg/kg [20] was > 50% and the ED50 [21] was 0.17 mg/kg. It also gave an AUC [22] of 4.2 ng·h/mL, an IC50 [23] of 1000 nM and an inhibition at 13 µM [24] of 18%. The Activity [25] was “Non-Toxic”, the Activity [26] was “Non-Toxic” and the Activity [27] was “Non-Toxic”. The Activity [28] was “Non-Toxic”, the Activity [29] was “Non-Toxic” and the Activity [30] was “Non-Toxic”. For the same compound, the Activity [31] was “Non-Toxic”, the Activity [32] was “Non-Toxic” and the F [33] was 6%. For the same compound, the bioavailability [34] was 6.5%, the Stability [35] was “Stable” and the remaining at 2 h [36] was 75%. For the same compound, the inhibition [37] was “Dose-Dependent Effect”, the Activity [38] was 96% and the Activity [39] was 67%. The Activity [40] was 59%, the Activity [41] was 21% and the Activity [42] was 75%. For the same compound, the Activity [43] was 173%, the Activity [44] was 240% and the Activity [45] was “Non-Toxic”. For the same compound, the Activity [46] was “Non-Toxic” and the IC50 [47] was 631 nM.

For CC(C)Nc1nc(-c2n[nH]c(=O)[nH]2)cc2ccccc12, the IC50 [1] was 20 nM and the EC50 [2] was 158 nM.

CCOc1cccc(-c2n[nH]c(=O)[nH]2)n1 gave an IC50 [1] of 6310 nM.

COc1nc2ccccc2cc1-c1n[nH]c(=O)[nH]1 gave an IC50 [1] of 3160 nM.

Compound O=c1[nH]nc(-c2cccnc2)[nH]1 has an IC50 [1] of 126000 nM.

For COc1nc(-c2n[nH]c(=O)[nH]2)cc2ccccc12, the IC50 [1] was 398 nM.

With Oc1n[nH]c(-c2ccccc2)n1 the IC50 [1] was 501000 nM.

With O=c1[nH]nc(-c2nc3ccccc3[nH]2)[nH]1 the IC50 [1] was 10000 nM.

Compound CCOc1nc(-c2n[nH]c(=O)[nH]2)cc2ccccc12 has an IC50 [1] of 50.1 nM.

Compound O=c1[nH]nc(-c2ccccn2)[nH]1 has an IC50 [1] of 316000 nM.

From ChEMBL document CHEMBL5030537 (J Med Chem, 2021)
